Assays:
[1] = molecular target: Cyclin-dependent kinase 2/cyclin E (Homo sapiens, UniProt P24941); assay: Inhibitory activity against baculovirus expressed Cyclin dependent kinase 2-cyclinE; type: protein-complex assay
[2] = molecular target: Cyclin-dependent kinase 4/cyclin D1 (Homo sapiens, UniProt P11802); assay: Inhibitory activity against baculovirus expressed Cyclin dependent kinase 4-cyclinD1; type: protein-complex assay
[3] = molecular target: Cyclin-dependent kinase 2 (Homo sapiens) (UniProt P24941); assay: Percentage A2780 cells in sub-G1 after 24 hr r at 295 nM (IC90); type: functional, cell-based
[4] = molecular target: Cyclin-dependent kinase 2 (Homo sapiens) (UniProt P24941); assay: Percentage A2780 cells in G2/M after 24 hr r at 20 nM (IC50); type: functional, cell-based
LS174T = assay: Inhibition of LS174T human colon carcinoma cell proliferation; type: functional, cell-based
M109 = assay: Inhibition of M109 mouse lung carcinoma cell proliferation; type: functional, cell-based
[5] = molecular target: Cyclin-dependent kinase 2 (Homo sapiens) (UniProt P24941); assay: Percentage A2780 cells in G1 after 24 hr r at 295 nM (IC90); type: functional, cell-based
A2780 [6] = assay: Inhibition of A2780 / DDP-S human ovarian carcinoma cell proliferation; type: functional, cell-based
[7] = molecular target: Cyclin-dependent kinase 2 (Homo sapiens) (UniProt P24941); assay: Apoptotic A2780 cells after 24 hr r at 295 nM (IC90); type: functional, cell-based
[8] = molecular target: Cyclin-dependent kinase 2 (Homo sapiens) (UniProt P24941); assay: Percentage A2780 cells in G2/M after 24 hr r at 295 nM (IC90); type: functional, cell-based
HCT-116 [9] = assay: Inhibition of HCT116 / VP35 human colon carcinoma cell proliferation; type: functional, cell-based
OVCAR-3 = assay: Inhibition of OVCAR-3 human ovarian carcinoma cell proliferation; type: functional, cell-based
[10] = molecular target: Cyclin-dependent kinase 2 (Homo sapiens) (UniProt P24941); assay: Percentage A2780 cells in sub-G1 after 24 hr r at 20 nM (IC50); type: functional, cell-based
MIP = assay: Inhibition of MIP human colon carcinoma cell line; type: functional, cell-based
SK-BR-3 = assay: Inhibition of SKBR-3 human breast carcinoma cell proliferation; type: functional, cell-based
[11] = molecular target: Cyclin-dependent kinase 2 (Homo sapiens) (UniProt P24941); assay: Apoptotic A2780 cells after 24 hr r at 20 nM (IC50); type: functional, cell-based
[12] = Inhibition of Insulin-like growth factor receptor
HCT-116 [13] = assay: Inhibition of HCT116 human colon carcinoma cell proliferation; type: functional, cell-based
MCF7 = assay: Inhibition of MCF-7 human breast carcinoma cell proliferation; type: functional, cell-based
A2780 [14] = assay: Inhibition of A2780 / TAX-R human ovarian carcinoma cell proliferation; type: functional, cell-based
HS27 = assay: Inhibition of Hs 27 human fibroblast cell proliferation; type: functional, cell-based
[15] = molecular target: Receptor tyrosine-protein kinase erbB-2 (Homo sapiens, UniProt P04626); assay: Inhibition of HER2 kinase
Receptor tyrosine-protein kinase erbB-2, sequence (P04626 whole entry): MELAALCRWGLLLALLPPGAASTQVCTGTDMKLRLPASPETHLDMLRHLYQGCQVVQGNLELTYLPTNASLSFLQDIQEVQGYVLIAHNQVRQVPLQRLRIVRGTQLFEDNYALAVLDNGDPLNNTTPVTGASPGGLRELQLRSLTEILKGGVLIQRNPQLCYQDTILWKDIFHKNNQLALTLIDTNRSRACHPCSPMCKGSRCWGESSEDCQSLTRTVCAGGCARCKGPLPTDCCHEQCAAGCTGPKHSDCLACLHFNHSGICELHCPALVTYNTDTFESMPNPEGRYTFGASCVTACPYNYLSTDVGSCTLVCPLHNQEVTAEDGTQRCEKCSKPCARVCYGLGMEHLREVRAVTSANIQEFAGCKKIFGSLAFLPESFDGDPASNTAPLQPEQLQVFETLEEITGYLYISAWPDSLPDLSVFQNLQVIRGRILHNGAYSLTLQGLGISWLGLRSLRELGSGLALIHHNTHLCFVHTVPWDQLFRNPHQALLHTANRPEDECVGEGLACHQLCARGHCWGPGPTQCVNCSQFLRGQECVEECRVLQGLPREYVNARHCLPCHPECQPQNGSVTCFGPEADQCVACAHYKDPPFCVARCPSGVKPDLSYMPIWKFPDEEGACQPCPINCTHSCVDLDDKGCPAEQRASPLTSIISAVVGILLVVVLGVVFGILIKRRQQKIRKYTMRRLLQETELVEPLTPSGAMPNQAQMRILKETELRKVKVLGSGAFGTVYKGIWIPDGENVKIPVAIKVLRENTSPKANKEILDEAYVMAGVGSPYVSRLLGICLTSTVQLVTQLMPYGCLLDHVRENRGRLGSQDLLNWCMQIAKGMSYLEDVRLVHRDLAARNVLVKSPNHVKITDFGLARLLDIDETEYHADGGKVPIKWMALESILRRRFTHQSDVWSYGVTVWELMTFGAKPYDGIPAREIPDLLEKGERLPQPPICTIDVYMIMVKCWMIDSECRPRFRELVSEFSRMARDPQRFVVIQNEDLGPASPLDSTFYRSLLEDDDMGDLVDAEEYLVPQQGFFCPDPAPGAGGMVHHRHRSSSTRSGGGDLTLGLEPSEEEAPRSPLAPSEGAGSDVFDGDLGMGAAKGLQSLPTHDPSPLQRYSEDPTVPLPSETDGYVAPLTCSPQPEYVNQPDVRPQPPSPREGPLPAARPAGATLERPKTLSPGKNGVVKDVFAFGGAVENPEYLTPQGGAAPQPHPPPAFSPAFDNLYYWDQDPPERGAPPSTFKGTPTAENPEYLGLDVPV

A549 = assay: Inhibition of A549 human lung carcinoma cell proliferation; type: functional, cell-based
[16] = molecular target: Cyclin-dependent kinase 2 (Homo sapiens) (UniProt P24941); assay: Percentage A2780 cells in S-phase after 24 hr r at 20 nM (IC50); type: functional, cell-based
[17] = molecular target: Cyclin-dependent kinase 2 (Homo sapiens) (UniProt P24941); assay: Percentage A2780 cells in S-phase after 24 hr r at 295 nM (IC90); type: functional, cell-based
[18] = molecular target: Cyclin-dependent kinase 1/cyclin B (Homo sapiens, UniProt P06493); assay: Inhibitory activity against baculovirus expressed Cyclin dependent kinase 1-cyclinB; type: protein-complex assay
CCRF-CEM = assay: Inhibition of CCRF-CEM human leukemia cell proliferation; type: functional, cell-based
A2780 [19] = assay: cells; conditions: Homo sapiens
Description: Cytotoxic activity against A2780 human ovarian carcinoma cell line

ABAE = assay: Inhibition of ABAE […] cell proliferation; type: functional, cell-based
LX-1 = assay: Inhibition of LX-1 human lung carcinoma proliferation; type: functional, cell-based
[20] = molecular target: T1, Tyrosine-protein kinase ITK/TSK (Homo sapiens, UniProt Q08881); assay: Inhibition of tyrosine kinase EMT
T1 sequence (Q08881 whole entry): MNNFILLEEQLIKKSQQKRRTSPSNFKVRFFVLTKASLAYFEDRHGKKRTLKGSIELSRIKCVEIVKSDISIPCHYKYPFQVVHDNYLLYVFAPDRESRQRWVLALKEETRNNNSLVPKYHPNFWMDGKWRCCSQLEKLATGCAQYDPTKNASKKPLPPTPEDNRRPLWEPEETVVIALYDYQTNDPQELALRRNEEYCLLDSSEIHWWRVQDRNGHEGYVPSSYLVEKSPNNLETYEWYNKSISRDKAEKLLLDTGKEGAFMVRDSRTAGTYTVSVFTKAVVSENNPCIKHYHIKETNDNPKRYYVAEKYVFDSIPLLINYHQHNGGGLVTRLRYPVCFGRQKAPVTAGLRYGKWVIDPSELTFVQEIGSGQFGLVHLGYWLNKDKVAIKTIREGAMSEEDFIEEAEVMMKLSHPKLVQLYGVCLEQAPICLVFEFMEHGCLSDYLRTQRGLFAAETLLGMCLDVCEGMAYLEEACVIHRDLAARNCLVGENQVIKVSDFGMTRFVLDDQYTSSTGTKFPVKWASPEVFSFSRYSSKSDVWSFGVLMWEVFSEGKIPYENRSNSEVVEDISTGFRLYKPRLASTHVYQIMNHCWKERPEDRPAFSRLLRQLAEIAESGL

Caco-2 = assay: Inhibition of CACO-2 human colon carcinoma cell proliferation; type: functional, cell-based
HL-60 = assay: Inhibition of HL60 human leukemia cell proliferation; type: functional, cell-based
MLF = assay: Inhibition of MLF mouse lung fibroblast cell proliferation; type: functional, cell-based
A2780 [21] = assay: Inhibition of A2780 / TAX-S human ovarian carcinoma cell proliferation; type: functional, cell-based
A2780 [22] = assay: Inhibition of A2780 / DDP-R human ovarian carcinoma cell proliferation; type: functional, cell-based
HCT-116 [23] = assay: Inhibition of HCT116 / VM46 human colon carcinoma cell proliferation; type: functional, cell-based
PC-3 = assay: Inhibition of PC3 human prostate carcinoma cell proliferation; type: functional, cell-based
A-431 = assay: Inhibition of A431 human squamous cell carcinoma cell proliferation; type: functional, cell-based
[24] = molecular target: Cyclin-dependent kinase 2 (Homo sapiens) (UniProt P24941); assay: Percentage A2780 cells in G1 after 24 hr r at 20 nM (IC50); type: functional, cell-based
K562 = assay: Inhibition of K562 human leukemia cell proliferation; type: functional, cell-based

Cyclin-dependent kinase 4/cyclin D1, sequence (P11802 whole entry): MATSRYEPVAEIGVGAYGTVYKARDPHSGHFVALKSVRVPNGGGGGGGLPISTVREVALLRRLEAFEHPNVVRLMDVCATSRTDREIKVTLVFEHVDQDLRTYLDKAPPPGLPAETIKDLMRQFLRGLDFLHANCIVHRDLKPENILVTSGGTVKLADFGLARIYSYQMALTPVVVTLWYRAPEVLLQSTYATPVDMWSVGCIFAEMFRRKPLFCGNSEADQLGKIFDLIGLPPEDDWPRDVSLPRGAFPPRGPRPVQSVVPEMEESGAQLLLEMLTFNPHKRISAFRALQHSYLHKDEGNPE
Cyclin-dependent kinase 4/cyclin D1, sequence (P24385 whole entry, further chain): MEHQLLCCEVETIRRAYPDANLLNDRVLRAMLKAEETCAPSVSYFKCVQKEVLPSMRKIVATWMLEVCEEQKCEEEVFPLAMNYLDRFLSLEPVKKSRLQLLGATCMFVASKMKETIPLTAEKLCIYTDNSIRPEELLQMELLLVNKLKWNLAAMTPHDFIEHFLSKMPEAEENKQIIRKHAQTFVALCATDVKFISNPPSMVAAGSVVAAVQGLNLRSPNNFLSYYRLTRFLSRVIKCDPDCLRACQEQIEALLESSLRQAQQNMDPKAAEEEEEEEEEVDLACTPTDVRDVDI

CC(=O)Nc1ncc(SCc2ncc(-c3ccccc3)o2)s1
IC50 [1]: 350 nM | IC50 [2]: 4510 nM

COC(=O)C(Sc1cnc(NC(C)=O)s1)C1CCCCC1 (centres undefined)
IC50 [1]: > 1000 nM

CC(=O)Nc1ncc(SCCOc2ccccc2)s1
IC50 [1]: > 1000 nM

CC(=O)Nc1nnc(SCC(=O)OC(C)(C)C)s1
IC50 [1]: > 25000 nM

CCc1cnc(CSc2cnc(NC(C)=O)s2)o1
Cell cycle [3]: 7% | Cell cycle [4]: 29% | IC50 (LS174T): 1710 nM | IC50 (M109): 2100 nM | Cell cycle [5]: 62% | IC50 (A2780 [6]): 1050 nM | Cell cycle [7]: 16% | Cell cycle [8]: 25% | IC50 (HCT-116 [9]): 450 nM | IC50 (OVCAR-3): 1210 nM | Cell cycle [10]: 2% | IC50 (MIP): 1790 nM | IC50 (SK-BR-3): 1640 nM | Cell cycle [11]: 6% | IC50 [12]: > 25000 nM | IC50 (HCT-116 [13]): 480 nM | IC50 (MCF7): 1470 nM | IC50 (A2780 [14]): 1140 nM | IC50 (HS27): 860 nM | IC50 [15]: > 25000 nM | IC50 (A549): 1870 nM | Cell cycle [16]: 11% | Cell cycle [17]: 6% | IC50 [18]: 300 nM | IC50 (CCRF-CEM): 1450 nM | IC50 (A2780 [19]): 1400 nM | IC50 (ABAE): 1100 nM | IC50 (LX-1): 1900 nM | IC50 [20]: > 10000 nM | IC50 [1]: 20 nM | IC50 (Caco-2): 1610 nM | IC50 (HL-60): 1400 nM | IC50 (MLF): 1860 nM | IC50 (A2780 [21]): 700 nM | IC50 (A2780 [22]): 1420 nM | IC50 [2]: 2250 nM | IC50 (HCT-116 [23]): 530 nM | IC50 (PC-3): 1060 nM | IC50 (A-431): 960 nM | Cell cycle [24]: 58% | IC50 (K562): 3230 nM

CC(=O)Nc1ncc(SCCc2cccc3ccccc23)s1
IC50 [1]: > 1000 nM

CC(=O)Nc1ncc(SCc2ncc(C)o2)s1
IC50 [1]: 90 nM | IC50 [2]: 5160 nM

CC(=O)Nc1ncc(SCC(C)C)s1
IC50 [1]: > 1000 nM

COC(=O)c1ccc(CSc2cnc(NC(C)=O)s2)o1
IC50 [1]: > 1000 nM

CC(=O)Nc1ncc(SCc2ncc(CC3CCCCC3)o2)s1
IC50 [18]: 30 nM | IC50 (A2780 [19]): 1540 nM | IC50 [1]: 4 nM | IC50 [2]: 640 nM

CC(=O)Nc1ncc(SCc2ccccn2)s1
IC50 [1]: > 1000 nM

CC(C)(C)c1cnc(CSc2cnc(NS(=O)(=O)c3ccccc3)s2)o1
IC50 (A2780 [19]): 2860 nM | IC50 [1]: 4280 nM

CCOC(=O)CCCCCSc1cnc(NC(C)=O)s1
IC50 [1]: > 1000 nM

CC(=O)Nc1ncc(SCCOC(C)(C)C)s1
IC50 [1]: 1740 nM

CCc1cnc(CSc2cnc(NC(=O)C(C)C)s2)o1
IC50 [18]: 60 nM | IC50 (A2780 [19]): 200 nM | IC50 [1]: 5 nM | IC50 [2]: 1070 nM

CC(=O)Nc1cnc(SCc2ncc(C(C)(C)C)o2)s1
IC50 [1]: > 25000 nM

COCCSc1cnc(NC(C)=O)s1
IC50 [1]: > 1000 nM

CC(C)C(=O)N(C)c1ncc(SCc2ncc(C(C)(C)C)o2)s1
IC50 [1]: > 25000 nM

CC(=O)Nc1ncc(SCC(O)CC(C)(C)C)s1 (centres undefined)
IC50 [1]: 2810 nM

CC(=O)Nc1ncc(SCc2nnsc2Cl)s1
IC50 [1]: > 1000 nM

CC(=O)Nc1ncc(SCC(=O)OC(C)(C)C)s1
IC50 [18]: 440 nM | IC50 [1]: 50 nM | IC50 [2]: 5380 nM

CC(=O)Nc1ncc(SCc2ncc(C(C)(C)C)o2)s1
IC50 [18]: 40 nM | IC50 [1]: 5 nM | IC50 [2]: 690 nM

CC(=O)Nc1ncc(SCC2CCCCC2)s1
IC50 [1]: > 1000 nM

CC(=O)Nc1ncc(SCC(=O)CC(C)(C)C)s1
IC50 [1]: 1840 nM

CC(=O)Nc1ncc(SCc2cccnc2)s1
IC50 [1]: 680 nM

CC(=O)Nc1ncc(SCCc2ccccc2)s1
IC50 [1]: 12600 nM
